Laboratory results as given in patent US11532406B2, “High specific activity preparation of F-18 tetrafluoroborate” (Mayo Foundation for Medical Education and Research, priority 2016, dated 2022).
“And” between values parts separate entries of the source, which are not always exact repeats. Equal entries are not always repeated. “Also recorded” adds a separate entry of the source. Marks after values point to notes of the source that are not given here.

What was measured:
[1] = ~400 MBq ^18F-TFB synthesized by the conventional method, human subject; Jauregui-Osoro et al. (14); cited from earlier work
[2] = Measurements in venous blood and urine samples, HPLC metabolite analysis; type: in vivo, human; conditions: for Urine (% Dose), Accumulative: end of study (~250 min)
Description: Urine was collected after each PET/CT scan (approximately 55, 160, 250 min), and venous blood samples were collected at 40, 145 and 235 min, post-injection, as shown in FIG. 13. Blood samples (3-4 mL) were collected in heparinized tubes and placed on ice. The blood samples were centrifuged at 3000 g for 5 min to obtain plasma. Urine was measured for urine volume and radioactivity concentration as measured in a calibrated gamma counter. Analysis for metabolites in plasma and urine was performed by ion-chromatography HPLC, allowing estimation of the fraction of radioactivity as nonmetabolized ^18F-TFB.

[3] = Stability of ^18F-TFB (radio-TLC and anion chromatography HPLC); type: physicochemical
Description: The product ^18F-TFB was analyzed for radiochemical purity by both radio-TLC (MeOH, Rf=0.8-0.85) and anion chromatography HPLC with radioactivity detector (Dionex IC-2100, AS19 analytical column: 4.7×150 mm; eluent: 35 mM KOH; sample volume: 25.L; flow rate: 1 mL/min; retention times: 7.6 min for ^18F-TFB, […]). Chemical purity and specific activity were analyzed by anion chromatography HPLC (retention times: 3.5 min for fluoride, 4.3 min for chloride, and 7.6 min for BF4—). Residual organic solvents were analyzed by GC (helium carrier gas flow at 10 cc/min through a MXTWAX column (Restek, Bellefonte, Pa., 0.53 mm ID, 30 m length)).
After the synthesis, a sample was diluted with water for the analysis. With the eluent of methanol on silica gel plate, purities of >98% were obtained on the radio-TLC scanner.
^18F-TFB was prepared and formulated in sterile 0.9% NaCl under cGMP conditions as previously described (12). Decay-corrected radiochemical yields of 32±2% and radiochemical purities (RCPs) >98% were obtained. Specific radioactivity of 2.2±0.9 GBq/μmol was achieved from starting ^18F-fluoride radioactivity of 20-31 GBq. In vitro RCP remained >96% up to 8 h at room temperature.

[4] = Estimated plasma / in vivo concentration of TFB after ~400 MBq ^18F-TFB; parameters: species or system human; conditions: specific activity of 8 GBq/μmol, ~400 MBq administered dose
[5] = Safety measurements for ^18F-TFB administration (vital signs, clinical laboratory tests); type: in vivo, human
Description: Vital signs (heart rate, systolic and diastolic blood pressures, respiratory rate, and temperature) were measured prior to ^18F-TFB administration and at 45 and 240 min post-injection. Venous blood samples were taken prior to ^18F-TFB administration and at ˜240 min post-injection for a panel of clinical laboratory tests to evaluate the safety of the radiotracer administration.

[6] = Measurements in venous blood and urine samples, HPLC metabolite analysis; type: in vivo, human; conditions: all urine samples, approximately 50, 160, 250 min
[7] = test system: hNIS-expressing C6 glioma xenograft; experiment: Dynamic PET imaging in hNIS-expressing C6 glioma xenografted athymic mice; type: in vivo
Description: Studies with mice were performed under approval of the Mayo Clinic Institutional Animal Care and Use Committee. Dynamic PET imaging was performed in hNIS-expressing C6 glioma xenografted athymic mice following retro-orbital injection ˜1.1 MBq Na ^18F-TFB at different specific activities (10-0.001 mg TFB/Kg mouse) to assess hNIS activity with ^18F-TFB. In this xenograft model, one flank has hNIS-negative C6 glioma tumor xenograft and the other flank had hNIS-expressing C6 glioma xenograft.
PET scans were acquired for 60 min followed by an X-ray scan using the GENISYS4 PET imaging system (Sofie Biosciences, CA). The images from 40 hNIS-expressing C6 glioma xenografted mice were analyzed for Standardized Uptake Value (SUV) in tumor, stomach, and thyroid using AMIDE image processing software (20). The SUV in tumor was normalized with SUV in stomach to account for difference in ^18F-TFB bioavailability in different animals due to competing uptake in normal organs like thyroid, salivary glands and stomach.

[8] = C6-glioma xenograft mouse model, PET

% Intact ^18F-TFB, Plasma ([2]; females, 40 min): 97 ± 3^c %
Plasma (SUV) ([2]; females, 40 min): 3.8 ± 1.0 SUV
Whole blood (SUV) ([2]; females, 40 min): 3.1 ± 0.9 SUV
Urine (% Dose) ([2]; females, 40 min column (urine collected ~10 min later)): 16 ± 3 % Dose
% Intact ^18F-TFB, Urine ([2]; females, 40 min column (urine ~10 min later)): 98 ± 1%
Plasma (SUV) ([2]; females, 145 min): 2.1 ± 0.5 SUV
Whole blood (SUV) ([2]; females, 145 min): 1.7 ± 0.4 SUV
Urine (% Dose) ([2]; females, 145 min column (urine collected ~10 min later)): 18 ± 3^ % Dose
% Intact ^18F-TFB, Urine ([2]; females, 145 min column (urine ~10 min later)): 98 ± 1%
Plasma (SUV) ([2]; females, 235 min): 1.7 ± 0.5 SUV
Whole blood (SUV) ([2]; females, 235 min): 1.4 ± 0.4 SUV
Urine (% Dose) ([2]; females, 235 min column (urine collected ~10 min later)): 12 ± 2 % Dose
% Intact ^18F-TFB, Urine ([2]; females, 235 min column (urine ~10 min later)): 97 ± 2%
Urine (% Dose), Accumulative ([2]; females): 47±7 % Dose
% Intact ^18F-TFB, Plasma ([2]; males, 40 min): 97 ± 2%
Plasma (SUV) ([2]; males, 40 min): 3.8 ± 0.2 SUV
Whole blood (SUV) ([2]; males, 40 min): 3.0 ± 0.2 SUV
Urine (% Dose) ([2]; males, 40 min column (urine collected ~10 min later)): 15 ± 2^b % Dose
% Intact ^18F-TFB, Urine ([2]; males, 40 min column (urine ~10 min later)): 96 ± 2%
Plasma (SUV) ([2]; males, 145 min): 2.8 ± 0.3 SUV
Whole blood (SUV) ([2]; males, 145 min): 2.1 ± 0.2 SUV
Urine (% Dose) ([2]; males, 145 min column (urine collected ~10 min later)): 13 ± 3 % Dose
% Intact ^18F-TFB, Urine ([2]; males, 145 min column (urine ~10 min later)): 97 ± 2%
Plasma (SUV) ([2]; males, 235 min): 2.0 ± 0.1 SUV
Whole blood (SUV) ([2]; males, 235 min): 1.7 ± 0.2 SUV
Urine (% Dose) ([2]; males, 235 min column (urine collected ~10 min later)): 10 ± 2^b % Dose
% Intact ^18F-TFB, Urine ([2]; males, 235 min column (urine ~10 min later)): 98 ± 1%
Urine (% Dose), Accumulative ([2]; males): 40±4 % Dose and 40 ± 4^b % Dose
^18F-labeled metabolites in blood and urine (HPLC) ([2]; over the length of the study (4 h)): insignificant
radioactivity as metabolically intact ^18F-TFB in plasma ([2]; plasma samples at 40 min p.i.): > 97%
HPLC analysis of the product sample, ^18F-TFB peak ([3]; after 20 h): chemically stable
radiochemical purity by radio-TLC after 20 h ([3]; after 20 h, sample diluted with water, silica gel, methanol): > 96%
In vitro RCP ([3]; up to 8 h at room temperature, in sterile 0.9% NaCl): > 96%
estimated in vivo concentration of TFB [4]: ~0.02 µM
radioactivity in the form of ^18F-TFB in urine [6]: > 97%
uptake in thyroid, stomach, bladder and hNIS-expressing tumors [7, 8]: Robust uptake
stomach uptake versus specific activity ([7]; mouse, in vivo): independent of specific activity
stomach uptake over 60 min ([7]; over 60 min): linear increase
uptake kinetic in thyroid and hNIS-expressing tumor ([7]; rapid uptake over first 10 min, slower until 30 min): bi-phasic kinetic
SMILES: F[B-](F)(F)[18F] [^18F-TFB, ^18F-tetrafluoroborate]
estimated plasma concentration of TFB [1]: ~0.1 µM
clinical laboratory test values after administration ([5]; blood chemistries, electrolytes, liver and kidney functional tests, relative to baseline): No significant changes; also recorded: no significant findings
adverse effects ([5]; eight healthy participants): no adverse effects
tolerability of administration ([5]; healthy participants, 333-407 MBq intravenous): well-tolerated; also recorded: well tolerated
vital signs after administration ([5]; heart rate, blood pressures, respiratory rate, before vs after administration): No significant changes; also recorded: no significant findings
uptake by hNIS-expressing tumor versus specific activity ([7]; >13 MBq/μmol compared to 3 MBq/μmol): higher at high specific activity
uptake in hNIS-negative tumors [7, 8]: No uptake
